Format in all cases: functional
For experiment [1], the system named is Onchocerca lienalis. Nature of the experiment: MMV: Percent motility assay at a compound concentration of 3.1e-6 M. Activity score legend: 3: Active, 2: Moderately active; 1: Inactive, 0: Toxic. The conditions noted are these: at 3.1 µM.
Experiment [2] concerns Onchocerca lienalis. In words: MMV: Percent motility assay at a compound concentration of 7.8e-7 M. Activity score legend: 3: Active, 2: Moderately active; 1: Inactive, 0: Toxic. The conditions noted are these: at 0.78 µM.
Experiment [3] deals with Onchocerca lienalis. In words: MMV: Percent motility assay at a compound concentration of 1.9e-7 M. Activity score legend: 3: Active, 2: Moderately active; 1: Inactive, 0: Toxic. The conditions noted are these: at 0.19 µM.
Experiment [4] concerns Onchocerca lienalis. Nature of the experiment: MMV: Percent motility assay at a compound concentration of 1.25e-5 M. Activity score legend: 3: Active, 2: Moderately active; 1: Inactive, 0: Toxic. The conditions noted are these: at 12.5 µM.

Regarding `CN(C)CCCNc1c2ccccc2nc2ccccc12`, the Motility in experiment [1], in experiment [2], in experiment [3] and in experiment [4] was 100% in each case.
As to `Cc1cc(C)cc(Nc2cc(C)nc3nc(C(F)(F)F)nn23)c1`, the Motility in experiment [1], in experiment [2], in experiment [3] and in experiment [4] was 100% each time.
Consider `O=C(NCC(c1ccsc1)N1CCCCCC1)c1ccc(C(F)(F)F)cc1` (stereo not given), for which the Motility in experiment [1], in experiment [2], in experiment [3] and in experiment [4] was 100% in each case.
On to `Cc1ccc(-c2cc3c(SCC(=O)Nc4cc(C(F)(F)F)ccc4Cl)nccn3n2)cc1`, for which the Motility in experiment [1], in experiment [2], in experiment [3] and in experiment [4] was 100% in each case.
Consider `CCCCCC(=O)N1c2ccccc2N=C2CC(c3ccc(OC)c(OC)c3)CC(O)=C2C1c1ccc(C(F)(F)F)cc1` (stereo not given), for which the Motility in experiment [1], in experiment [2], in experiment [3] and in experiment [4] was 100% in each case.
Turning to `Cc1cc(NCCN2CCCCC2)c2ccc3ccccc3c2n1`, the Motility in experiment [1], in experiment [2], in experiment [3] and in experiment [4] was 100% in each case.
As to `COc1ccc(-c2nc(NC(=O)CS(=O)(=O)c3ccc(F)cc3)sc2C)cc1`, the Motility in experiment [1], in experiment [2], in experiment [3] and in experiment [4] was 100% in each case.
Turning to `Cc1ccc(N2C(=O)C3C(C2=O)C2(c4ccccc4)C(=O)C3(c3ccccc3)C(c3ccccc3)=C2c2ccccc2)cc1` (stereo not given), the Motility in experiment [1], in experiment [2], in experiment [3] and in experiment [4] was 100% each time.
Regarding `CCc1c(C)c(=N)c2ccccc2n1C.I`, the Motility in experiment [1], in experiment [2], in experiment [3] and in experiment [4] was 100% each time.
In the case of `COc1cccc(NC(=O)[C@H](C(C)C)n2c(=O)[nH]c3ccccc3c2=O)c1`, the Motility in experiment [1], in experiment [2], in experiment [3] and in experiment [4] was 100% in each case.
On to `CCOC(=O)c1cn(CC)c2cc(N(C)CCc3ccc(OC)c(OC)c3)c(F)cc2c1=O`, for which the Motility in experiment [1], in experiment [2], in experiment [3] and in experiment [4] was 100% throughout.
As for `O=[N+]([O-])c1ccc(C=NNc2nc3ccccc3[nH]2)cc1`, the Motility in experiment [1], in experiment [2], in experiment [3] and in experiment [4] was 100% each time.
On to `COc1ccc(C2=C(c3ccc(OC)cc3)C3(c4ccccc4)C(=O)C2(c2ccccc2)C2C(=O)N(c4ccc(C)cc4)C(=O)C23)cc1` (stereo not given), for which the Motility in experiment [1], in experiment [2], in experiment [3] and in experiment [4] was 100% throughout.
Turning to `CCOC(=O)C1=C(c2ccccc2)N=c2sc(=Cc3cc(C)n(-c4ccc(F)cc4)c3C)c(=O)n2C1c1cccc(OC)c1OC` (stereo not given), the Motility in experiment [1], in experiment [2], in experiment [3] and in experiment [4] was 100% throughout.
`CCC1(C)CC(CCNCc2ccccc2O)(c2ccc(C)cc2)CCO1` (stereo not given): the Motility in experiment [1], in experiment [2], in experiment [3] and in experiment [4] was 100% throughout.
As to `Cc1cc(Nc2ccc(C)c(Cl)c2)n2nc(C(F)(F)F)nc2n1`, the Motility in experiment [1], in experiment [2], in experiment [3] and in experiment [4] was 100% in each case.
For the compound `Fc1ccc2[nH]c3c(NCCCN4CCOCC4)ncnc3c2c1`, the Motility in experiment [1], in experiment [2], in experiment [3] and in experiment [4] was 100% each time.
`Cc1cccc(Nc2nc(N)c3ccccc3n2)c1.Cl`: the Motility in experiment [1], in experiment [2], in experiment [3] and in experiment [4] was 100% throughout.
Turning to `CCn1c(CN2CCN(Cc3ccccc3)CC2)nc2cc(NC(=O)c3cccs3)ccc21`, the Motility in experiment [1], in experiment [2], in experiment [3] and in experiment [4] was 100% throughout.
For the compound `COc1cc(OC)c(N(C)C(=O)c2cc3c(s2)-c2ccccc2S(=O)(=O)C3)cc1Cl`, the Motility in experiment [1], in experiment [2], in experiment [3] and in experiment [4] was 100% throughout.
Turning to `CNCCCNc1ccnc2cc(Cl)ccc12`, the Motility in experiment [1], in experiment [2], in experiment [3] and in experiment [4] was 100% each time.
For `COc1ccccc1CNC(=O)CCn1c(=O)[nH]c2ccsc2c1=O`, the Motility in experiment [1], in experiment [2], in experiment [3] and in experiment [4] was 100% in each case.
Turning to `COc1ccc(Br)cc1C1Nc2ccc3ccccc3c2C2=C1C(=O)CC(c1ccccc1)C2` (stereo not given), the Motility amounted to 100% in experiment [1], 100% in experiment [2], 100% in experiment [3] and 66.66% in experiment [4].
As to `Cc1cc(C=C2SC(=Nc3ccccc3)N(C3CCCC3)C2=O)c(C)n1-c1ccc(Cl)cc1`, the Motility in experiment [1], in experiment [2], in experiment [3] and in experiment [4] was 100% throughout.
As to `CC1CCN(Cc2ccc(NC(=O)c3cc4ccc5cccnc5c4[nH]3)cc2)CC1`, the Motility in experiment [1], in experiment [2], in experiment [3] and in experiment [4] was 100% in each case.
Take `CCc1ccc(Nc2cc(C)c3ccc(O)cc3n2)cc1.Cl`: the Motility in experiment [1] turned out to be 100%; in experiment [2], 100%; in experiment [3] it was 100%; in experiment [4] it was 66.66%.
For the compound `CSc1ccccc1C(=O)Nc1nc(-c2ccccn2)cs1`, the Motility stood at 100% in experiment [1], 100% in experiment [2], 100% in experiment [3] and 33.33% in experiment [4].
Take `COc1ccc(C(C)=O)cc1N1C(=O)C2C(C1=O)C1(c3ccccc3)C(=O)C2(c2ccccc2)C(c2ccc(C)cc2)=C1c1ccc(C)cc1` (stereo not given): the Motility in experiment [1], in experiment [2], in experiment [3] and in experiment [4] was 100% in each case.
Regarding `CCCc1c(CC)c(=N)c2ccccc2n1C`, the Motility in experiment [1], in experiment [2], in experiment [3] and in experiment [4] was 100% in each case.
Take `CCOC(=O)c1cnc2c(C)cc(C)cc2c1Nc1ccc(OC)c(OC)c1`: the Motility in experiment [1], in experiment [2], in experiment [3] and in experiment [4] was 100% in each case.

These data come from ChEMBL document CHEMBL3137381, “MMV Box Onchocerca lienalis screening set”.
